Measured values taken from patent publication US5292734A, “Angiotensin II receptor blocking 2,3,6 substituted quinazolinones” (American Cyanamid Company, priority 1993, dated 1994).

Molecular target: T1, Angiotensin II Receptor (Bos taurus, UniProt P25104)
T1 construct: The brownish tissue forming the adrenal cortex is scraped off and finely minced with scissors before homogenization; from tissue; host or cells: beef adrenal cortex, microsomal membranes (100,000 x g pellet)
T1 sequence (P25104 1-359): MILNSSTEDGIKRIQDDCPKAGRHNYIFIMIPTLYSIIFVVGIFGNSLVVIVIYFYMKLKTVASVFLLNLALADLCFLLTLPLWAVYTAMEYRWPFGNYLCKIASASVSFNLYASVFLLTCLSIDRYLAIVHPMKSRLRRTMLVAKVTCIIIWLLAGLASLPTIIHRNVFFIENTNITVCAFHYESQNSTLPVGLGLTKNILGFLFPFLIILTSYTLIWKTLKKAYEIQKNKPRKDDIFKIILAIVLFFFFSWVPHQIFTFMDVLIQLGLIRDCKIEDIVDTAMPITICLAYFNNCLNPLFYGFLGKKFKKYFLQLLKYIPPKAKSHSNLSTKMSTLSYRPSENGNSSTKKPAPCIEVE
Experiment: Receptor binding assay: binding of [^125 I](Sar^1,Ile^8)AngII
Settings: beef adrenal cortex membranes, 60 min, room temperature
Description: Beef adrenals are obtained from a local slaughter house (Maxwell-Cohen). [^125 I](Sar^1,Ile^8)AngII, S. A. 2200 Ci/mmole, is purchased from Dupont (NEN®, Boston, Mass.). All unlabeled AngII analogs, Dimethylsulfoxide (DMSO), nucleotides, bovine serum albumin (BSA) are purchased from Sigma Chemical Co., St. Louis, Mo. U.S.A.
Approximately sixteen (16) to twenty (20) beef adrenal glands are processed as follows: fresh adrenal glands received on crushed ice are cleaned of fatty tissues and the tough membranes encapsulating the glands are removed and discarded. […] A 100 ul aliquot is withdrawn and the protein content of the preparation is determined by the Lowry's method (Lowry, O. H., Rosebrough, N. P., Farr, A. L. and Randall, R. J., Protein measurement with Polin phenol reagent. J. Biol. Chem., […], 265-275, 1951). […]
The binding of [^125 I](Sar^1 Ile^8)AngII to microsomal membranes is initiated by the addition of reconstituted membranes (1:10 vols.) in freshly made 50.0 mM Tris.HCl buffer, pH 7.4 containing 0.25% heat inactivated bovine serum albumin (BSA): 80 ul membrane protein (10 to 20 ug/assay) to wells already containing 100 ul of incubation buffer (as described above) and 20 ul [^125 I](Sar^1 Ile^8)AngII (Specific Activity, 2200 Ci/mmole). Non-specific binding is measured in the presence of 1.0 uM unlabeled (Sar^1,Ile^8)AngII, added in 20 ul volume. […]

IC50: 41 nM
SMILES: CCCCc1nc2ccc(C(O)CC3CCCN3)cc2c(=O)n1Cc1ccc(-c2ccccc2-c2nnn[nH]2)cc1 (racemic) [Example 80, CIS-(+/-)-2-Butyl-6-[1-hydroxy-2-(2-pyrrolidinyl)ethyl]-3-[[2'-(1H-tetrazol-5-yl)[1,1'-biphenyl]-4-yl]methyl] -4(3H)-quinazolinone]
